Reference: US20090298108A1, “Method for Identifying PDE11 Modulators” (priority 2005, published 2009)
Entries after “also recorded” stand apart in the source; their conditions may differ.

System: PDE11A4/CyaB1-chimera
Assay: Adenylate cyclase activity assay of PDE11A4/CyaB1-chimera (conversion of [α-32P]-ATP to cAMP)
Assay type: biochemical, human

% basal value (1 mM of cyclic nucleotide, relative to basal enzyme activity): 400%
Structure (SMILES): Nc1nc2c(ncn2[C@@H]2O[C@@H]3COP(=O)(O)O[C@H]3[C@H]2O)c(=O)[nH]1 [cGMP]
Classification as PDE11A4-GAF agonist / antagonist (from dose-effect curve, FIG. 5): PDE11A4-GAF agonist; also recorded: selectively activates the GAF domain of PDE11 as agonist
